Biological target: Apoptotic protease-activating factor 1 (Homo sapiens) (UniProt O14727)
Assay: Apaf-1 inhibitor potency, dose response, fluorescence, uHTS hits (AID 588524)
Details: Apaf-1 apoptosome assay, fluorescence read-out

Sequence of Apoptotic protease-activating factor 1 (Homo sapiens) (O14727 whole entry, looked up): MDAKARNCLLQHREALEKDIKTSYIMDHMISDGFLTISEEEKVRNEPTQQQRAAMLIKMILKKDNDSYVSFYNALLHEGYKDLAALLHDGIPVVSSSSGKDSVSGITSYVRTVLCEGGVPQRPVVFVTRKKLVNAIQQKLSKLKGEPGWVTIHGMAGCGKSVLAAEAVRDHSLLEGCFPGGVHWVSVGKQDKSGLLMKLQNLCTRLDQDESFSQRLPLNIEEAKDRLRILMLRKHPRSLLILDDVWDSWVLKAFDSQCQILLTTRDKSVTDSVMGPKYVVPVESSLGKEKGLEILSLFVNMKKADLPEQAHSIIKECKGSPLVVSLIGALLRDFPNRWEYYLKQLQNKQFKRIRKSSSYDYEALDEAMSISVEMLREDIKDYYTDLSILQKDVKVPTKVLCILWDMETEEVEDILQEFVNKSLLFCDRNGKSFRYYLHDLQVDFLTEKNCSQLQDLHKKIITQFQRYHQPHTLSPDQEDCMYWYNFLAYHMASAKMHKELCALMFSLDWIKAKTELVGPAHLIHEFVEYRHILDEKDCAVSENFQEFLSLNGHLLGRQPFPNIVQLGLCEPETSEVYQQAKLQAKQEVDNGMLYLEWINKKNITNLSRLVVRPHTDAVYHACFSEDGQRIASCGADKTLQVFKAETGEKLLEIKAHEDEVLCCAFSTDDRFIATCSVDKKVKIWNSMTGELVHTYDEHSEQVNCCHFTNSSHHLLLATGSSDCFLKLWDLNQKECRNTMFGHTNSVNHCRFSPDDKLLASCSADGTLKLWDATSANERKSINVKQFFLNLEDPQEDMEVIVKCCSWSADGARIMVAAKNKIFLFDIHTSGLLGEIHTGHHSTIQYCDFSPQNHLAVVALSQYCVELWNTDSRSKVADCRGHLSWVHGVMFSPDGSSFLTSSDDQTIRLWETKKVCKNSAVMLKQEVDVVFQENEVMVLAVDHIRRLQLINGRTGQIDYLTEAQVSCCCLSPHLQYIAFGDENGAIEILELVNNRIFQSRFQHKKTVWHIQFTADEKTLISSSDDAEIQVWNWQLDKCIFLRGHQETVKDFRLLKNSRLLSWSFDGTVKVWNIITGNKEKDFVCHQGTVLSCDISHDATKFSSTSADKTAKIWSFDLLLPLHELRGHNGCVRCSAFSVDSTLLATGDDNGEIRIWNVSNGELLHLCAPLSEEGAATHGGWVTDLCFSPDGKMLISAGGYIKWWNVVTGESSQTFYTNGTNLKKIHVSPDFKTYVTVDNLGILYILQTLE

Row | Compound | IC50
1 | C#CCOCCOCCOCCNc1nc(N2CCN(C(=O)CCCCCCCCCCNC(=O)[C@@H](CCSC)n3cc(CCO)nn3)CC2)nc(N2CCN(C(=O)CCCCCCCCCCNC(=O)[C@H](CO)n3cc(CCCCCN)nn3)CC2)n1 | 40 µM
2 | C#CCOCCOCCOCCNc1nc(N2CCN(C(=O)CCCCCCCCCCNC(=O)[C@H](CCCCN)n3cc(C)nn3)CC2)nc(N2CCN(C(=O)CCCCCCCCCCNC(=O)[C@H](CCCN=C(N)N)n3cc(C[C@@H](C)CC)nn3)CC2)n1 | 15.3 µM
3 | CNc1ccc2nc3ccccc3[n+](C)c2c1 | 11.5 µM
4 | C#CCOCCOCCOCCNc1nc(N2CCN(C(=O)CCCCCCCCCCNC(=O)[C@H](CCCCN)n3cc(CCO)nn3)CC2)nc(N2CCN(C(=O)CCCCCCCCCCNC(=O)[C@H](CCCCN)n3cc(CCO)nn3)CC2)n1 | 27.1 µM
5 | C#CCOCCOCCOCCNc1nc(N2CCN(C(=O)CCCCCCCCCCNC(=O)Cn3cc(CCCCCN)nn3)CC2)nc(N2CCN(C(=O)CCCCCCCCCCNC(=O)[C@H](CO)n3cc(CCCSC)nn3)CC2)n1 | 24.6 µM
6 | CCCCCCCCCCCCCCCC[n+]1ccc(/C=N/O)cc1 | 29.3 µM
7 | C#CCOCCOCCOCCNc1nc(N2CCN(C(=O)CCCCCCCCCCNC(=O)Cn3cc(CCCCCN)nn3)CC2)nc(N2CCN(C(=O)CCCCCCCCCCNC(=O)[C@H]([C@@H](C)CC)n3cc(CCCCN=C(N)N)nn3)CC2)n1 | 12.9 µM
8 | C[n+]1c(-c2ccccc2)c2cc(N)ccc2c2ccc(N)cc21 | 24.5 µM
9 | C#CCOCCOCCOCCNc1nc(N2CCN(C(=O)CCCCCCCCCCNC(=O)[C@H]([C@@H](C)CC)n3cc(CCCCN=C(N)N)nn3)CC2)nc(N2CCN(C(=O)CCCCCCCCCCNC(=O)[C@H](CCCCN)n3cc(C)nn3)CC2)n1 | 21.4 µM
10 | C#CCOCCOCCOCCNc1nc(N2CCN(C(=O)CCCCCCCCCCNC(=O)Cn3cc(CCCCCN)nn3)CC2)nc(N2CCN(C(=O)CCCCCCCCCCNC(=O)Cn3cc(CCCCCN)nn3)CC2)n1 | 34.9 µM
11 | C#CCOCCOCCOCCNc1nc(N2CCN(C(=O)CCCCCCCCCCNC(=O)[C@H](CO)n3cc(CCCSC)nn3)CC2)nc(N2CCN(C(=O)CCCCCCCCCCNC(=O)[C@H](CCCCN)n3cc(CCO)nn3)CC2)n1 | 36.3 µM
12 | C#CCOCCOCCOCCNc1nc(N2CCN(C(=O)CCCCCCCCCCNC(=O)Cn3cc(CCCCCN)nn3)CC2)nc(N2CCN(C(=O)CCCCCCCCCCNC(=O)[C@H]([C@@H](C)CC)n3cc(CCCCCN)nn3)CC2)n1 | 24.3 µM

— PubChem BioAssay AID588524 (Sanford-Burnham Center for Chemical Genomics, 2011)
